The values that follow come from publication PMC10459118, “The Effect of Plastic-Related Compounds on Transcriptome-Wide Gene Expression on CYP2C19-Overexpressing HepG2 Cells” (Molecules, 2023).

Series [1] can be described thus: Resazurin reduction assay (growth inhibition / cytotoxicity). To be noted: human. The method, then:
(§1) To investigate the effects of the in silico identified compounds on cell viability, we used CYP2C19-overexpressing HepG2 cells (Figure 3). Different concentrations (ranging from 0.003 to 100 μM) were tested.
(§2) Figure 3 Resazurin assay of cytochrome P450 2C19-overexpressing HepG2 cells treated with different concentrations of the six selected compounds. All experiments were performed in three replicate measurements of mean ± SD.
(§3) CYP2C19-overexpressing HepG2 cells were originated as previously described. Cells were grown in DMEM medium (DMEM, 31966021, Gibco™, Billings, MT, USA) at 37 °C and 5% CO2 in a humidified incubator. DMEM media were supplemented with 10% fetal bovine serum (FBS) and with 3 μg/mL blasticidin (ant-bl-05, InvivoGen, San Diego, CA, USA) to preserve the selection of transfected CYP2C19-overexpressing HepG2 cells.
(§4) Aliquots of 10^4 CYP2C19-overexpressing HepG2 cells were seeded per well into 96-well plates. Cells were treated with different concentrations of the selected compounds with a range from 0.003 to 100 µM in a total volume of 200 µL for 72 h. Successively, 20 µL/well of resazurin 0.01% w/v (Sigma Aldrich, Taufkirchen, Germany) was added. The fluorescence intensity was measured with an Infinite M200 Pro-plate reader (Tecan, Crailsheim, Germany). Dose–response curves were engendered for three independent experiments for each compound, and 50% inhibition concentrations (IC50) were calculated. The analysis was represented using the […] GraphPad Software (version 9.5.1) (La Jolla, CA, USA).

Series [2] has as its system CYP2C19-overexpressing HepG2 cells. The description is as above. The note with it: CYP2C19-overexpressing HepG2 cells, 0.003 to 100 μM, 72 h. On the procedure: as §1, §2, §3, §4
For series [3] the test system is unchanged. It counts as cell-based. On the procedure: Figure 8 Flow cytometric cell cycle analysis of cytochrome CYP2C19-overexpressing HepG2 cells treated with IC50 concentrations of compounds 4 and 6. The data are represented as mean and SD of three independent experiments. (* p < 0.05, ** p < 0.01, compared to DMSO-treated cells).
CYP2C19-overexpressing HepG2 cells were treated with IC50 concentrations of compounds 4 and 6 for 24 h. Then, the cells were fixed using 80% cold ethanol and stored overnight at −20 °C. Successively, the cells were washed twice with PBS and resuspended in 1 mL of cold PBS containing 1mg/mL RNaseA (Sigma-Aldrich, Taufkirchen, Germany) and 50 μg/mL PI (Sigma-Aldrich, Taufkirchen, Germany). After 15 min of incubation, the measurements were performed using a BD LSRFortessa™ Cell Analyzer (Becton-Dickinson, Heidelberg, Germany). DMSO-treated cells were used as a negative control.

Series [4] shares this test system. The series is described as follows: RNA sequencing with pathway enrichment analysis. It counts as cell-based. To be noted: for genes of 'cholesterol biosynthetic process' influenced by only one compound: Venn diagram of compounds 4-6, vs DMSO; for genes of 'DNA replication' pathway exclusively influenced by the compound: Venn diagram of compounds 4 and 6, vs DMSO. The method, then: Functional enrichment analysis with clusterProfiler was executed using the gene ontology biological process annotation. Finally, with the GeneTonic software (version 2.4.0), a visual summary of the influenced pathways, from here on referred to as 'enriched pathways', was created. […] The size of the dots corresponds to the number of genes in the reference gene set. […] Control cells were treated with 0.2% DMSO. After 24 h of incubation, the cells were harvested. RNA extraction was performed with an […] RNA Mini Kit (Invitek Molecular GmbH, Berlin, Germany) according to the manufacturer's instructions. The cell pellet was lysed with 350 μL of Lysis Solution and treated with β-mercaptoethanol. After DNA removal, 350 μL of 70% ethanol was added, and the sample was applied onto the RNA-RTA spin filter. After several washing steps, RNA was eluted with 60 μL of Elution Buffer R, and the concentration and purity were measured with NanoDrop. RNA sequencing was performed by […] GmbH, Mainz, Germany. The quality of the extracted RNA was verified by the company with a 2100 Bioanalyzer system (Agilent Technologies, Santa Clara, CA, USA). After mRNA isolation and library preparation using a NEBNext^© UltraTM II Directional RNA Library Prep Kit (New England Biolabs, Ipswich, MA, USA), RNA sequencing of around 25 Mio PE reads (2 × 12.5 M reads, 2 × 150 nt) was performed with an Illumina NextSeq 2000TM system. Each treatment and control group included two replicates. The FastQC tool (0.12.0, https://www.bioinformatics.babraham.ac.uk/projects/fastqc/) (accessed 15 February 2023) was used for quality control on the sequencing data. Transcript abundance estimates were computed with Salmon (version 1.5.0) with a transcriptome index generated by GENCODE (version 38) and then summarized to the gene level with the […] package (version 1.16.0). Exploration, modelling, and interpretation of the expression data followed the protocols defined by Ludt et al. […] Exploratory data analysis was performed with the pcaExplorer package (version 2.24.0). […] Accurate estimation of the effect sizes (described as log2-fold changes) was performed using the […] shrinkage estimator (version 1.20.0). Further analyses included gene ontology pathway enrichment by topGO (version 2.50.0) using all expressed genes as a background dataset and the ideal package (version 1.22.0) and by clusterProfiler (version 4.6.0) with default settings and the log2-fold change as the input.

Setting [5] is: IC50 concentration, 24 h, vs DMSO.

The compound `O=C(OC1CCCCC1)c1ccccc1C(=O)OC1CCCCC1` [compound 1, dicyclohexyl phthalate] had an IC50 at 72 h in series [1] of 88 ± 7.77 µM.

On to `CC(C)COC(=O)c1ccccc1C(=O)OCC(C)C` [compound 2, diisobutyl phthalate], for which the concentration for half-maximal inhibition (IC50) at 72 h in series [1] is more than 100 µM. The cytotoxic effect result in series [2] is listed as “did not exhibit any cytotoxic effect”.

Turning to `CC(C)(C)CC(C)(C)c1ccc(O)c(-n2nc3ccccc3n2)c1` [compound 3, octrizole], in series [1], 67.5 ± 2.05 µM corresponded to half-maximal inhibition (IC50 at 72 h).

In the case of `Cc1cc(Cc2cc(C)cc(C(C)(C)C)c2O)c(O)c(C(C)(C)C)c1` [compound 4, 2,2′-methylene bis(6-tert-butyl-4-methylphenol)], the half-maximal inhibitory concentration (IC50) at 72 h in series [1] came to 18.6 ± 0.94 µM. Further, in series [3], the G0/G1 population worked out at 74.11 ± 1.98%; the “percentage change in the sub-G0 and G2/M phases” value is reported as “No significant percentage change”; the “percentage of S-phase cells” value is listed as 8.05 ± 1.92%. Also, in series [4] (setting [5]), the “cell death mechanisms 'autophagy' and 'process utilizing autophagic mechanism'” value was “activated”; the “mitosis-related pathways ('mitotic sister chromatid segregation', 'sister chromatid segregation', 'regulation of mitotic sister chromatid separation', 'chromosome organization')” value is listed as “suppressed”; the “pathway 'DNA replication'” value is “suppressed”; the “pathway 'DNA-templated DNA replication'” value is listed as “suppressed”. Further, in series [4] (setting [5]), the “pathway 'metaphase/anaphase transition of mitotic cell cycle'” value is listed as “suppressed”; the “pathways 'cholesterol metabolic process' and 'sterol metabolic process'” value is reported as “suppressed”; the “pathways 'cytokine production' and 'regulation of cytokine production'” value is recorded as “activated”. Also, in series [4], the “genes of 'cholesterol biosynthetic process' influenced by only one compound” value (shortened to “genes … by only one compound”) is given as “two” and the “genes of 'DNA replication' pathway exclusively influenced by the compound” value is “Forty-one”. For the same compound, the “affected genes related to 'regulation of cytokine production'” value in series [4] (vs DMSO) was 82 genes.

For `CC(c1cc(C(C)(C)C)cc(C(C)(C)C)c1O)c1cc(C(C)(C)C)cc(C(C)(C)C)c1O` [compound 5, 1,1-bis(3,5-di-tert-butyl-2-hydroxyphenyl)ethane], in series [1], half-maximal inhibition (IC50 at 72 h) was put at 18.1 ± 0.68 µM. In series [4] (setting [5]), the “cell death mechanisms 'autophagy' and 'process utilizing autophagic mechanism'” value is “activated”; the “pathways 'cholesterol metabolic process' and 'sterol metabolic process'” value is given as “suppressed”; the “pathways 'cytokine production' and 'regulation of cytokine production'” value was “activated”; the “pathways 'steroid biosynthetic process', 'alcohol biosynthetic pathway', 'alcohol metabolic process', 'organic hydroxy compound metabolic process'” value is listed as “suppressed”. In addition, the “genes … by only one compound” value in series [4] is “three”. For the same compound, the “affected genes related to 'regulation of cytokine production'” value in series [4] (vs DMSO) came to 80 genes.

On to `Cc1cc(Cc2cc(C)cc(C3CCCCC3)c2O)c(O)c(C2CCCCC2)c1` [compound 6, 2,2′-methylene bis(6-cyclohexyl-4-methylphenol)], for which the IC50 at 72 h in series [1] was found to be 20.16 ± 0.06 µM. Also, in series [3], the G0/G1 population was 72.30 ± 1.68%; the “percentage change in the sub-G0 and G2/M phases” value was “No significant percentage change”; the “percentage of S-phase cells” value stood at 6.76 ± 3.28%. Further, in series [4] (setting [5]), the “angiogenesis-related pathways 'vasculature development', 'blood vessel morphogenesis', 'blood vessel development'” value was “activated”; the “mitosis-related pathways ('mitotic sister chromatid segregation', 'sister chromatid segregation', 'regulation of mitotic sister chromatid separation', 'chromosome organization')” value is listed as “suppressed”; the “pathway 'DNA replication'” value is “suppressed”; the “pathway 'inflammatory response'” value is given as “activated”. In series [4] (setting [5]), the “pathway 'response to nutrients levels'” value is “activated” and the “pathways 'nuclear chromosome segregation', 'mitotic nuclear division', 'chromosome segregation'” value was “down-regulated”. In series [4], the “genes … by only one compound” value is given as “one” and the “genes of 'DNA replication' pathway exclusively influenced by the compound” value is reported as “nine”.
